The target of one data set is T1, PPARδ (Homo sapiens, UniProt Q03181).
T1 sequence (Q03181 211-439 limits assumed): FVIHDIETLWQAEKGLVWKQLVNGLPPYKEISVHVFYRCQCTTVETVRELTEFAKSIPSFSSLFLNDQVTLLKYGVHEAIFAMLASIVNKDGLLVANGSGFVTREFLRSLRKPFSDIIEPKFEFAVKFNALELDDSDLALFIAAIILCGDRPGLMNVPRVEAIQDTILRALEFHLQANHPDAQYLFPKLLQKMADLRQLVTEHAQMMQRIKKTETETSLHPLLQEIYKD
The data set is described as follows: In vitro PPARδ transactivation assay (Gal4-hPPARδLBD luciferase reporter in 293E cells). To be noted: 10^−5 M, 24 h, Csamples/Ccontrol, mean±SEM. On the technique in general: In a reporter assay the amount or activity of a reporter protein is the signal.

A further data set has as its target T2, PPARα (Homo sapiens, UniProt Q07869).
T2 construct: pcDNA3.1-hPPARαLBD-Gal4DB; expressed in transfected cells; host or cells: 293E cells
T2 sequence (Q07869 239-466 limits assumed): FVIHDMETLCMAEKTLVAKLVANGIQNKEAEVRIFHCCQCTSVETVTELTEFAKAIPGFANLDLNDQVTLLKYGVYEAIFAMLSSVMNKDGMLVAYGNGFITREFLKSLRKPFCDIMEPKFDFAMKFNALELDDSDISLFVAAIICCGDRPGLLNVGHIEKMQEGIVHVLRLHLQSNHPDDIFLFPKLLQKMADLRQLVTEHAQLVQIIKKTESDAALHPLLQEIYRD
The data set is described as follows: In vitro PPARα transactivation assay (Gal4-hPPARαLBD luciferase reporter in 293E cells). The note with it: 10^−5 M, 24 h, Csamples/Ccontrol, mean±SEM. It counts as cell-based.

Data set [1] concerns the target T3, PPARγ (Homo sapiens, UniProt P37231).
T3 sequence (P37231 238-503 limits assumed): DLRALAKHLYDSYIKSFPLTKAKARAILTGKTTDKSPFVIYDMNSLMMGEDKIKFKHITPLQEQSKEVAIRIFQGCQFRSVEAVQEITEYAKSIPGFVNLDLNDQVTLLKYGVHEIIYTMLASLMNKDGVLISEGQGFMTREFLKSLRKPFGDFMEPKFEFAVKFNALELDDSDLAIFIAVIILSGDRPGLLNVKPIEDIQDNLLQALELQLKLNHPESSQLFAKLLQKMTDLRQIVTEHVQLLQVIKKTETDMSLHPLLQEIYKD
Description: In vitro PPARγ transactivation assay (Gal4-hPPARγLBD luciferase reporter in 293E cells). To be noted: 10^−5 M, 24 h, Csamples/Ccontrol, mean±SEM.

Data set [2] deals with T3, PPARγ. The data set is described as follows: cell-based.
Data set [3] concerns the target T3, PPARγ.

The EC50 is the concentration giving half of the maximal effect. A lower EC50 goes with higher potency in that assay. The Cmax is the peak of the concentration-time curve. Consider `CC(C)(Oc1cccc(OCCn2c3ccccc3c3ccccc32)c1)C(=O)O` [6g, 2-(3-(2-(9H-carbazol-9-yl)ethoxy)phenoxy)-2-methylpropanoic acid], for which the “PPARδ Activation Fold” value on PPARδ is 1.28±0.11. The “PPARα Activation Fold” value on PPARα amounted to 1.40±0.27. In addition, on PPARγ [1], the “PPARγ Activation Fold” value worked out at 18.55±0.06. The compound also displayed a 50% effective concentration (EC50) on PPARγ [2] of 11.8 µM. Further, at PPARγ [3], the Cmax turned out to be 50 µM.

As to `c1cc(OCCn2c3ccccc3c3ccccc32)cc(OCc2nn[nH]n2)c1` [10h, 9-(2-(3-((2H-tetrazol-5-yl)methoxy)phenoxy)ethyl)-9H-carbazole], on PPARδ, the “PPARδ Activation Fold” value worked out at 1.16±0.05. In addition, the “PPARα Activation Fold” value at PPARα came out at 0.81±0.02. Besides, the “PPARγ Activation Fold” value at PPARγ [1] came out at 26.81±1.56. For the same compound, a half-maximal response at PPARγ [2] (EC50) required 6.97 µM. On PPARγ [3], this compound registered a peak concentration (Cmax) of 30 µM.

The values above are taken from paper PMC5400543, “Design, sythesis and evaluation of a series of 3- or 4-alkoxy substituted phenoxy derivatives as PPARs agonists” (Oncotarget, 2017).
